In patent US9791451B2, “Squaraine based fluorescent probe and a process for the preparation thereof” (Council of Scientific & Industrial Research, priority 2013, dated 2017):
Where two headings read alike, the source gives them in different places.

What was measured:
Hep-G2 cells [1] = format: cell-based; details: for Fluorescence Intensity, DAPI Image: 380 nm exc; for Fluorescence Intensity, DAPI Image / Fluorescence Intensity, Alexa Image: complex 1×10^−6 M; for Fluorescence Intensity, Alexa Image: 640 nm exc
Description: (§1) The culture medium was prepared by dissolving 13.4 g of DMEM-high glucose (Sigma, USA) in 1 L of distilled water. Sodium bicarbonate (3.7 g L^−1) was added to the medium and the pH of the medium was adjusted to 7.4. This medium was then sterilized by passing through a sterile filter assembly fitted with a 0.22 μm filter (Millipore, USA) using a vacuum pump. Later, the medium was stored in pre-sterilized Borosil polypropylene bottles, at 4° C., until further use. To the prepared culture medium an antibiotic mixture (20 μL mL^−1 of 100× concentrate, Sigma, USA) was added. Fetal bovine serum (FBS) (Sigma, USA) was also added to the medium to give a final concentration of 10% (to 900 mL medium, 100 mL of FBS was added).
Hep G2 cells (Human Hepatocellular carcinoma cell lines), which was obtained, from National Centre for Cell Science, Pune, India, were stored in cryovials at −196° C. in liquid nitrogen, in a medium containing 70% FBS, 10% dimethyl sulfoxide (DMSO) and 20% DMEM. For revival, the vials were thawed by placing them in a water-bath maintained at 37° C. for 2-3 minutes followed by centrifugation at 3000 rpm for 3 minutes. Supernatent was removed and the pellet after suspending in medium were transferred into a radiation sterilized culturing flask, T-25 cm^2 (BD Biosciences) inside the laminar flow. Subsequently, the flask was placed in a CO2 incubator for 2 h. The viable cells stick to the culture flask while the dead cells remain in the medium. Later the medium was replaced with fresh medium containing 10% FBS and incubated till a cell confluency of 70-80%. The medium was then discarded following desired confluency. Following confluency, since the Hep G2 cells are adherent in nature, they were trypsinised by using 1 mL of trypsin (0.25%)—EDTA (0.53 mM) buffer containing 0.9% sodium chloride for […]. The cells were then transferred to a centrifuge tube and centrifuged at 2000 rpm for 3 min, followed by the removal of the supernatant.
For sub culturing, fresh DMEM containing 10% FBS was added under aseptic conditions. Cells were flushed with the help of pipette (1 mL) until the cells are completely dispersed into the medium. The cells were then diluted in a sterile complete medium at 1:3 times and transferred into fresh culture flasks. Then the flasks were placed inside CO2 incubator.
The 1:6 Sq-BSA Complex whose sensitivity of pH lies within the physiological region and due to the ratiometric fluorescence response (FIG. 14) was used in this system for monitoring minor pH fluctuations inside cells ratiometrically. Hep-G2 cells were pre-incubated with phosphate buffer of different pH (6.5, 7.0, 7.5) and kept for 10 minutes. The 1:6 Sq-BSA complex (1×10^−6 M), which was prepared by mixing 5 μl of Sq (4×10^−5 M, prepared in acetonitrile) and 15 μl of BSA protein (1.2×10^−3 M, prepared in phosphate buffer 4.2) was added to each cells and kept for 10 minutes. The cells were then centrifuged and diluted for 2 times and then images has taken using confocal fluorescence microscope using alexa (640 nm exc) and DAPI (380 nm exc) as filters. With respect to the pH of the wells the fluorescence intensity from the DAPI image was enhanced and the alexa image got quenched. Quantitative data for pH measurements in cells were obtained using bio-rad image data, explorer software (table 2). The viability of the cells after incubation of Sq-BSA complex was confirmed by the bright-field transmission measurements (FIG. 15 c, bottom).

[2] = tested on: other thiol and nonthiol containing proteins (heamoglobin, glutathione reductase, bromelain); assay: Selectivity against other thiol and nonthiol containing proteins; format: binding
From the text: (§2) This selectivity apparently originates from the Sq disassembly driven by the molecular recognition sites of the serum albumin proteins.

BSA protein = BSA protein (Bos taurus, UniProt P02769); assay: Noncovalent (pH 4.2) and covalent (pH 8.2) labeling of serum albumin, fluorescence turn-on; format: binding, Bovine; details: 25 mM phosphate buffer, 6 μM
Description: Stock solution of Sq (1.2×10^−3 M) was prepared in acetonitrile and stock solution of BSA protein (2.4×10^−3M) was prepared in 25 mM phosphate buffer at pH 4.2. 15 μL of Sq from the stock solution is added to the 25 mM phosphate buffer at pH 4.2, to make the resulting concentration of the solution into 6×10^−6 M. To this solution different volumes ranging from 7.5-150 μL of BSA protein were added and the absorption and emission spectra were recorded each time after 20 minutes. The broad absorption (550-850 nm) corresponding to the absorption of Sq aggregates narrowed with a turn-on fluorescence at 700 nm (λexc @ 640 nm) emission was observed.
Stock solution of Sq (1.2×10^−3 M) was prepared in acetonitrile and stock solution of BSA protein (1.2×10^−3 M) was prepared in 25 mM phosphate buffer at a pH of 8.2. 15 μL of Sq from the stock solution is added to 25 mM phosphate buffer at pH 8.2, to make the resulting concentration of the solution to 6×10^−6 M. To this solution different volumes ranging from 1.5-36 μL of BSA protein were added and the absorption and emission spectra were recorded at 15 minutes interval. The broad absorption (550-850 nm) corresponding to the absorption of Sq aggregates quenched with concomitant formation of an absorption at 380 nm was observed (FIG. 8a). […]

[3] = Fluorescence detection of thiols (GSH) by Sq, selectivity and sensitivity; details: pH 8.0
Description: Sq detects GSH quantitatively with high sensitivity (2 nM) (FIG. 3). Formula 1 prepared in 30% ACN/25 mM phosphate buffer is used for monitoring thiol variations inside cells. […] The aggregation was confirmed by temperature-dependent UV/Vis and emission spectroscopic studies in 15% acetonitrile/water mixture (FIG. 5a and FIG. 5b). The self-assembly of Sq was established further by atomic force microscopy (AFM), transition electron microscopy (TEM) and DLS analysis. […] Formula 1 prepared in 25 mM phosphate buffer solution at a pH of 4.2 labels serum albumin proteins noncovalently, which is evident from the UV-vis and emission spectroscopic studies. The broad absorption (550-850 nm) corresponding to the absorption of Sq aggregates narrowed with a turn-on fluorescence at 700 nm exc @ 640 nm) emission upon addition of BSA protein was observed (FIGS. 7a & 7b). The solution of the Sq dye in phosphate buffer has a blue color but nonemissive (FIG. 7c, top). […] The 1:6 Sq-BSA complex whose pH sensitivity lies within the physiological region and due to the ratiometric fluorescence response (FIG. 14) this system was used for monitoring minor pH fluctuations inside cells ratiometrically. […] Quantitative data for pH measurements in cells were obtained using bio-rad image data explorer software (table 2). […]

[4] = Stability of the dye over pH; format: physicochemical
From the text: Even though noncovalent interaction of serum albumin proteins and covalent interaction of thiol containing small molecules with squaraine dyes are known in individual cases, achieving both type of interaction by a single probe in a reversible fashion with an external stimulus remains challenging. Therefore, the first and foremost task was identifying an appropriate switchable dye molecule, which is stable at a broad pH window with distinct emission wavelengths during the different modes of interactions and having a tunable pH responsive interaction. […] This absorption band is similar to the absorption of Sq in acetonitrile in which the molecule exists in the monomeric state. […] Sq (6 μM) in a 25 mM phosphate buffer (pH 4.2) has no emission at 700 nm due to the aggregation. Upon addition of BSA protein, a gradual enhancement in the fluorescence intensity at 700 nm was observed (FIG. 7b). This fluorescence enhancement is due to the disassembly of aggregates and the consequent noncovalent interaction between Sq and BSA protein. The solution of the Sq dye in 25 mM phosphate buffer has a blue color and at this stage the dye is non emissive (FIG. 7c, top).

HSA protein = HSA protein (Homo sapiens, UniProt P02768); assay: Noncovalent (pH 4.2) and covalent (pH 8.2) labeling of serum albumin, fluorescence turn-on; format: binding; details: 25 mM phosphate buffer, 6 μM
From the text: as §2

[5] = Selectivity against small thiol containing molecules in self-assembled state; details: 10 equivalent; Sq 6×10^−6 M; 480 nm
From the text: The selectivity of our nanoprobe towards serum albumin proteins from small thiol containing molecules like cysteine, homocysteine, glutathione, mercaptoethanol, dithiothreitol, cystamine and thioglycolic acid at a higher pH of 8.2, where the dye is expected to undergo thiol alkylation reaction is investigated. […] Bar diagram represents the selectivity of Sq (6×10^−6 M) for BSA and HSA protein (6×10^−6 M) from other small thiol containing molecules (FIG. 10) which clearly indicate that the probe in its self-assembled state is able to detect serum albumin protein among other thiol containing small molecules.

Hep-G2 cells [6] = assay: Detection of minor thiol fluctuations inside HepG2 cells pre-treated with NEM; format: cell-based, Human; details: NEM 3×10^−3 M to 3×10^−6 M, 15 minutes; dye 10 minutes
Description: as §1
Hep G2 cells (Human Hepatocellular carcinoma cell lines), which was obtained, from National Centre for Cell Science, Pune, India, were stored in cryovials at −196° C. in liquid nitrogen, in a medium containing 70% FBS, 10% dimethyl sulfoxide (DMSO) and 20% DMEM. […]
Hep-G2 cells were pre-incubated with NEM of various concentrations (3×10^−3 M to 3×10^−6 M) and kept for 15 minutes. […] The cells were then centrifuged and diluted for 2 times and then images were-taken using confocal fluorescence microscope using alexa (640 nm exc) and DAPI (380 nm exc) as filters.

[7] = Self-assembly morphology by AFM, TEM and DLS; format: physicochemical
From the text: The self-assembly of Sq was established by atomic force microscopy (AFM), transition electron microscopy (TEM) and DLS analysis. […] The dynamic light scattering (DLS) measurements of a buffer solution containing.

Chain of HSA protein (P02768 25-609): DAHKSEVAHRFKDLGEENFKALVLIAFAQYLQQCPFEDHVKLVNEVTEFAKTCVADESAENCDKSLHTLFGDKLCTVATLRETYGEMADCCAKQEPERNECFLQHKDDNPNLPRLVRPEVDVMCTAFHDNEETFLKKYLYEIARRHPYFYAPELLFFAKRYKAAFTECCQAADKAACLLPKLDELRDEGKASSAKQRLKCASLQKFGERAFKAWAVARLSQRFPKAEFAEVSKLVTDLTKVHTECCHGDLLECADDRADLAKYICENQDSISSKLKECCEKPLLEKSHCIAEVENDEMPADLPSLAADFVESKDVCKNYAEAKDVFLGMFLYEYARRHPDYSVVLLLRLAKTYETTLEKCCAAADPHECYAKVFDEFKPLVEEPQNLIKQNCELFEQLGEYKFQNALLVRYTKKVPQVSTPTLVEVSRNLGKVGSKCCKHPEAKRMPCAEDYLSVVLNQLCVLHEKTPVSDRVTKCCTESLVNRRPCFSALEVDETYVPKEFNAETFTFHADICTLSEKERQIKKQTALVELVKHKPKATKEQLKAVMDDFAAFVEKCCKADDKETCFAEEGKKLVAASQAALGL
Chain of BSA protein (P02769 25-607): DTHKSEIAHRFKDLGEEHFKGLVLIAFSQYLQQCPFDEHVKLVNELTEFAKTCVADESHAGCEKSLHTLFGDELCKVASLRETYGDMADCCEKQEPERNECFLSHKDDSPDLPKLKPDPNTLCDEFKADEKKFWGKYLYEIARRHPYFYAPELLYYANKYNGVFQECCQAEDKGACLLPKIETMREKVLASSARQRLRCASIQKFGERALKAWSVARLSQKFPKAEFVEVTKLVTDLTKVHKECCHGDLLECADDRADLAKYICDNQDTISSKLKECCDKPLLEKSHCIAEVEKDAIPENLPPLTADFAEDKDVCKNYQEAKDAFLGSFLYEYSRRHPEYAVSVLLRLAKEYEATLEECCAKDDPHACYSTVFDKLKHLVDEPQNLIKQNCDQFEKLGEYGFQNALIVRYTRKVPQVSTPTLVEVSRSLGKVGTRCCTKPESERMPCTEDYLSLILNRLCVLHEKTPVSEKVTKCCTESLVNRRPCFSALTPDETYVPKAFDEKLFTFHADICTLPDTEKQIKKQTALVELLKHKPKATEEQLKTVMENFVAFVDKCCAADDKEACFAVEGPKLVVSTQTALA

1:6 Sq-BSA complex: complex of squaraine dye Sq with BSA protein in ratio 1:6
viability of the cells after incubation (Hep-G2 cells [1]): confirmed
Fluorescence Intensity, DAPI Image (Hep-G2 cells [1]; pH 6.5): 8.5
Fluorescence Intensity, Alexa Image (Hep-G2 cells [1]; pH 6.5): 39.84
Fluorescence Intensity, DAPI Image (Hep-G2 cells [1]; pH 7.0): 24.61
Fluorescence Intensity, Alexa Image (Hep-G2 cells [1]; pH 7.0): 21.47
Fluorescence Intensity, DAPI Image (Hep-G2 cells [1]; pH 7.5): 30.18
Fluorescence Intensity, Alexa Image (Hep-G2 cells [1]; pH 7.5): 18.08

CCCCN(CCCC)c1ccc(C2=C(O)C(c3ccc(/C=C/c4cc(OC)ccc4OC)n3CCOCCOCCOC)C2=O)cc1 (centres unmarked) [Sq, (E)-2-(4-(dibutylamino)phenyl)-4-(5-(2,5-dimethoxystyryl)-1-(2-(2-(2-methoxyethoxy)ethoxy)ethyl)-1H-pyrrol-2-yl)-3-hydroxycyclobut-2-enone]
fluorescence response with heamoglobin, glutathione reductase, bromelain at pH 8.2 ([2]; 0.10 equivalence, 480 nm): unable to produce fluorescence enhancement at 480 nm
fluorescence response with other thiols and nonthiol containing proteins at pH 4.2 ([2]; 10 equivalence, 700 nm): no fluorescence enhancement in the NIR region
fluorescence response with BSA at pH 8.2 (covalent labeling) (BSA protein; λexc 380 nm): green emission at 480 nm
fluorescence response with BSA at pH 4.2 (noncovalent labeling) (BSA protein; λexc 640 nm): fluorescence enhancement at 700 nm
selectivity toward thiols among amino acids (fluorescence at 510 nm) ([3]; 20 equivalence of 9 amino acids, 1 equivalence Cys, Hcy, GSH): highly selective to GSH
detection limit for GSH (fluorescent intensity at 510 nm) ([3]; 30% ACN/25 mM phosphate buffer, λexc 380 nm): 2 nM
pH range of stability [4]: 2-12
fluorescence response with HSA at pH 8.2 (covalent labeling) (HSA protein; λexc 380 nm): green emission at 480 nm
fluorescence response with HSA at pH 4.2 (noncovalent labeling) (HSA protein; λexc 640 nm): fluorescence enhancement at 700 nm
fluorescence response with thiol containing small molecules at pH 8.2 [5]: unable to generate much fluorescent enhancement in the 480 nm region
fluorescence intensity in cells versus NEM concentration (Hep-G2 cells [6]): gradual quenching
diameter of spherical aggregates (AFM and TEM) ([7]; 6×10^−6 M in 25 mM phosphate buffer, pH 4.2): 100-300 nm
mean diameter of aggregates (DLS) ([7]; buffer solution, Sq 6 μM): 200 nm
